From patent publication US20100285959A1, “HERBICIDAL MIXTURES” (priority 2006, published 2010)

What was measured:
[1] = test system: Brazilian crabgrass (DIGHO); assay: Test 11 field trial, preemergence; format: in vivo, Digitaria horizontalis; set-up: scale not given here; settings: alone or + atrazine 1500 or metolachlor 2500
Description: (§1) Corn seeds (hybrid ‘Pioneer 3041’) were planted in mid spring season, 5 cm deep in a clay soil having 2.6% organic matter and a pH of 5.6. Plots were 8 m long by 1.5 m wide with rows spaced 80 cm apart. Seeds were spaced 15 cm apart within the rows. The field was managed using conventional tillage practices. […] Treatments consisted of Compound 2 or
(§2) Goosegrass was not evaluated 16 or 91 days after application.

[2] = test system: corn (ZEAMD); assay: Test 10 field trial, preemergence; format: in vivo, Zea mays ssp. indentata; settings: hybrid Pioneer 33P65 RR, corn (Zea mays ssp. indentata), in vivo, 28 days after application
Description: (§3) Corn seeds (hybrid ‘Pioneer 33P65 RR’) were planted in mid spring season, 2.5 cm deep in a silt loam soil. Plots were 9.1 m long by 3.0 m wide with rows spaced 76 cm apart. The field was managed using conventional tillage practices. […] Results are the means of the three replicates.

[3] = test system: Pennsylvania smartweed (POLPY); assay: Test 8 field trial, preemergence; format: in vivo, Polygonum pensylvanicum
Description: (§4) Corn seeds (hybrid ‘Pioneer 31G96’) were planted in mid spring season, 3.8 cm deep in a clay loam soil having 2% organic matter and a pH of 6.6. Plots were 6.1 m long by 3.0 m wide with rows spaced 76 cm apart. Seeds were spaced 15 cm apart within the rows. The field was managed using conventional tillage practices. […] A few of the weed species could not be evaluated at every timing. […] Results are the means of the three replicates.

[4] = test system: giant foxtail (SETFA); assay: Test 10 field trial, preemergence; format: in vivo, Setaria faberi; settings: 28 DAA
Description: as §3

[5] = test system: velvetleaf (ABUTH); assay: Test 5 field trial, postemergence; format: in vivo, Abutilon theophrasti
Description: (§5) Corn seeds (hybrid ‘Pioneer 38H69’) were planted in mid spring season, 5.1 cm deep in a silty clay loam soil having 3% organic matter and a pH of 6.5. Plots were 9.1 m long by 3.0 m wide with rows spaced 76 cm apart. The field was managed using conventional tillage practices. […] All treatments included a surfactant except glufosinate treatments, both alone and in combination. […] Results are summarized in Table 5 and are the means of the three replicates.

[6] = test system: velvetleaf (ABUTH); assay: Test 10 field trial, preemergence; format: in vivo, Abutilon theophrasti; settings: 28 DAA
Description: as §3

[7] = test system: arrowleaf sida (SIDRH); assay: Test 11 field trial, preemergence; format: in vivo, Sida rhombifolia
Description: as §1, §2

[8] = test system: common cocklebur (XANST); assay: Test 10 field trial, preemergence; format: in vivo, Xanthium strumarium ssp. strumarium; settings: 28 DAA
Description: as §3

[9] = test system: redroot pigweed (AMARE); assay: Test 6 field trial, postemergence; format: in vivo, Amaranthus retroflexus
Description: Corn seeds (hybrid ‘Pioneer 35Y62’) were planted in mid spring season, 3.8 cm deep in a silt loam soil having 4% organic matter and a pH of 5.8. Plots were 10.7 m long by 1.5 m wide with rows spaced 76 cm apart. Seeds were spaced 18 cm apart within the rows. The field was managed using conventional tillage practices. […] All treatments included a surfactant except glufosinate treatments, both alone and in combination. […] Results are summarized in Table 6 and are the means of the three replicates.

[10] = test system: velvetleaf (ABUTH); assay: Test 8 field trial, preemergence; format: in vivo, Abutilon theophrasti
Description: as §4

[11] = test system: field pennycress (THLAR); assay: Test 1 field trial, preemergence; format: in vivo, Thlaspi arvense; settings: 28 DAA
Description: (§6) Corn seeds (hybrid ‘Pioneer 34N43’) were planted in mid spring season, 3.8 cm deep in a silt loam soil having 4.6% organic matter and a pH of 6. Plots were 10.7 m long by 1.5 m wide with rows spaced 76 cm apart. Seeds were spaced 18 cm apart within the rows. The field was managed using conventional tillage practices. […] Results are summarized in Table 1 and are the means of the three replicates. […] Colby's Equation (Colby, S. R. “Calculating Synergistic and Antagonistic Responses of Herbicide Combinations,” Weeds, 15(1), pp 20-22 (1967)) calculates the expected additive effect of herbicidal mixtures, and for two active ingredients is of the form:
(§7) Pa+b=Pa+Pb−(PaPb/100) • wherein Pa+b is the percentage effect of the mixture expected from additive contribution of the individual components, • Pa is the observed percentage effect of the first active ingredient at the same use rate as in the mixture, and • Pb is the observed percentage effect of the second active ingredient at the same use rate as in the mixture.

[12] = test system: yellow foxtail (SETLU); assay: Test 1 field trial, preemergence; format: in vivo, Setaria glauca; settings: 56 DAA
Description: as §6, §7

[13] = test system: giant foxtail (SETFA); assay: Test 5 field trial, postemergence; format: in vivo, Setaria faberi
Description: as §5

[14] = test system: goosegrass (ELEIN); assay: Test 11 field trial, preemergence; format: in vivo, Eleusine indica
Description: as §1, §2

[15] = 29 DAA, g a.i./ha: Cpd 2 50, S-Metolachlor 1870
[16] = 29 DAA, g a.i./ha: Cpd 2 100, Atrazine 1680, S-Metolachlor 1870
[17] = 29 DAA, g a.i./ha: Cpd 2 150, S-Metolachlor 1870
[18] = g a.i./ha: Cpd 2 50, S-Metolachlor 1870
[19] = g a.i./ha: Cpd 2 100, Atrazine 1680, S-Metolachlor 1870
[20] = g a.i./ha: Cpd 2 150, S-Metolachlor 1870
[21] = 16 DAA, Cpd 2 30 g a.i./ha alone or with glufosinate 470 or glyphosate 1120
[22] = 16 DAA, Cpd 2 60 g a.i./ha alone or with atrazine 1120, glufosinate 470 or glyphosate 1120
[23] = 31 DAA, Cpd 2 30 g a.i./ha alone or with glufosinate 470 or glyphosate 1120
[24] = 31 DAA, Cpd 2 60 g a.i./ha alone or with atrazine 1120, glufosinate 470 or glyphosate 1120
[25] = 30 DAA, Cpd 2/Cpd 1 at 62 g a.i./ha, alone or + atrazine 1500 or metolachlor 2500
[26] = 30 DAA, Cpd 2/Cpd 1 at 125 g a.i./ha, alone or + atrazine 1500 or metolachlor 2500
[27] = 44 DAA, Cpd 2/Cpd 1 at 62 g a.i./ha, alone or + atrazine 1500 or metolachlor 2500
[28] = 44 DAA, Cpd 2/Cpd 1 at 125 g a.i./ha, alone or + atrazine 1500 or metolachlor 2500
[29] = 62 DAA, 62 g a.i./ha, scale 0 to 100
[30] = 62 DAA, 125 g a.i./ha, scale 0 to 100
[31] = 16 DAA, atrazine 1120, glufosinate 470 or glyphosate 1120 g a.i./ha alone
[32] = 31 DAA, atrazine 1120, glufosinate 470 or glyphosate 1120 g a.i./ha alone

**Q.** Which results are given for `COC(=O)c1nc(C2CC2)nc(N)c1Cl` [Compound 2, methyl 6-amino-5-chloro-2-cyclopropyl-4-pyrimidinecarboxylate]?
**A.** DIGHO Obs ([1]; 16 DAA, Cpd 2/Cpd 1 at 62 g a.i./ha): 0; DIGHO Obs ([1]; 16 DAA, Cpd 2/Cpd 1 at 125 g a.i./ha): 40; DIGHO Obs ([1]; 30 DAA, Cpd 2/Cpd 1 at 62 g a.i./ha): 0; DIGHO Obs ([1]; 30 DAA, Cpd 2/Cpd 1 at 125 g a.i./ha): 40; DIGHO Obs ([1]; 44 DAA, Cpd 2/Cpd 1 at 62 g a.i./ha): 0; DIGHO Obs ([1]; 44 DAA, Cpd 2/Cpd 1 at 125 g a.i./ha): 0; DIGHO Obs ([1]; 62 DAA, Cpd 2/Cpd 1 at 62 g a.i./ha): 0; DIGHO Obs ([1]; 62 DAA, Cpd 2/Cpd 1 at 125 g a.i./ha): 0; DIGHO Obs ([1]; 91 DAA, Cpd 2/Cpd 1 at 62 g a.i./ha): 0; DIGHO Obs ([1]; 91 DAA, Cpd 2/Cpd 1 at 125 g a.i./ha): 0; ZEAMD Obs [2]: 0%; POLPY Obs ([3]; 19 DAA, g a.i./ha: Cpd 2 50): 28%; POLPY Obs ([3]; 19 DAA, g a.i./ha: Cpd 2 100): 60%; POLPY Obs ([3]; 19 DAA, g a.i./ha: Cpd 2 150): 65%; POLPY Obs [3, 15]: 30%; POLPY Obs [3, 16]: 50%; POLPY Obs [3, 17]: 70%; POLPY Obs ([3]; 56 DAA, g a.i./ha: Cpd 2 50): 55%; POLPY Obs ([3]; 56 DAA, g a.i./ha: Cpd 2 100, Atrazine 1680): 75%; POLPY Obs ([3]; 56 DAA, g a.i./ha: Cpd 2 150): 95%; SETFA Obs [4, 18]: 13%; SETFA Obs [4, 19]: 7%; SETFA Obs [4, 20]: 20%; ABUTH Obs [5, 21]: 76%; ABUTH Obs [5, 22]: 81%; ABUTH Obs [5, 23]: 77%; ABUTH Obs [5, 24]: 82%; ABUTH Obs [6, 18]: 7%; ABUTH Obs [6, 19]: 7%; ABUTH Obs [6, 20]: 13%; SIDRH Obs ([7]; 16 DAA, Cpd 2/Cpd 1 at 62 g a.i./ha, alone or + atrazine 1500 or metolachlor 2500): 20; SIDRH Obs ([7]; 16 DAA, Cpd 2/Cpd 1 at 125 g a.i./ha, alone or + atrazine 1500 or metolachlor 2500): 40; SIDRH Obs [7, 25]: 40; SIDRH Obs [7, 26]: 70; SIDRH Obs [7, 27]: 40; SIDRH Obs [7, 28]: 75; SIDRH Obs [7, 29]: 0; SIDRH Obs [7, 30]: 40; SIDRH Obs ([7]; 91 DAA, 62 g a.i./ha, scale 0 to 100): 0; SIDRH Obs ([7]; 91 DAA, 125 g a.i./ha, scale 0 to 100): 40; XANST Obs [8, 18]: 10%; XANST Obs [8, 19]: 7%; XANST Obs [8, 20]: 27%; AMARE Obs ([9]; 14 DAA, 30 g a.i./ha): 100%; AMARE Obs ([9]; 14 DAA, 60 g a.i./ha): 98%; AMARE Obs ([9]; 28 DAA, 30 g a.i./ha): 100%; AMARE Obs ([9]; 28 DAA, 60 g a.i./ha): 98%; ABUTH Obs ([10]; 19 DAA, g a.i./ha: Cpd 2 50, S-Metolachlor 1870): 28%; ABUTH Obs ([10]; 19 DAA, g a.i./ha: Cpd 2 100, Atrazine 1680, S-Metolachlor 1870): 45%; ABUTH Obs ([10]; 19 DAA, g a.i./ha: Cpd 2 150, S-Metolachlor 1870): 58%; ABUTH Obs [10, 15]: 43%; ABUTH Obs [10, 16]: 68%; ABUTH Obs [10, 17]: 90%; ABUTH Obs ([10]; 56 DAA, g a.i./ha: Cpd 2 50, S-Metolachlor 1870): 18%; ABUTH Obs ([10]; 56 DAA, g a.i./ha: Cpd 2 100, Atrazine 1680, S-Metolachlor 1870): 60%; ABUTH Obs ([10]; 56 DAA, g a.i./ha: Cpd 2 150, S-Metolachlor 1870): 85%; THLAR Obs [11, 18]: 0; THLAR Obs [11, 19]: 0; THLAR Obs [11, 20]: 7; SETLU Obs [12, 18]: 0; SETLU Obs [12, 19]: 0; SETLU Obs [12, 20]: 0; SETFA Obs [13, 21]: 0%; SETFA Obs [13, 22]: 0%; SETFA Obs [13, 23]: 0%; SETFA Obs [13, 24]: 2%; ELEIN Obs [14, 25]: 0; ELEIN Obs [14, 26]: 20; ELEIN Obs [14, 27]: 0; ELEIN Obs [14, 28]: 0; ELEIN Obs [14, 29]: 0; ELEIN Obs [14, 30]: 0

**Q.** For `O=C(O)CNCP(=O)(O)O` [Glyphosate], which “ABUTH Obs” value [5, 31] is on record?
**A.** 84%

**Q.** And the “ABUTH Obs” value [5, 32]?
**A.** 84%

**Q.** What about the “AMARE Obs” value ([9]; 14 DAA, 1120 g a.i./ha) of the same compound?
**A.** 100%

**Q.** And the “AMARE Obs” value ([9]; 28 DAA, 1120 g a.i./ha)?
**A.** 100%

**Q.** And the “SETFA Obs” value [13, 31]?
**A.** 100%

**Q.** And the “SETFA Obs” value [13, 32]?
**A.** 98%
